Experiments:
[1] = tested on: patients 65 years of age and older with major depression; test: Mini Mental State Examination (MMSE), cognition, in 8-week double-blind comparison; type: in vivo, human; conditions: for mean MMSE score, ε4 carriers compared with noncarriers: week 8, full cohort, analysis of covariance
Method: (§1) A multi-center, randomized, double-blind, 8-week comparison of paroxetine and mirtazapine was performed for 246 nondemented, cognitively intact patients 65 years of age and older with major depression. All patients were genotyped at the apoE locus as discussed further below.
(§2) After an initial evaluation period, the mirtazapine patients started with a 15 mg dose per day. After two weeks of treatment (Day 14), patients' dosages were raised to 30 mg per day. […] Subjects who rate “Much Improved” or “Very Much Improved” on the CGI Scale I continued on the same dose they were receiving during the previous week.
(§3) For paroxetine, the dosing system was the same, except that the starting dosage was 20 mg per day, raised to 30 mg per day, and to a maximum of 40 mg per day.
This test represents a brief standardized method to grade cognitive mental status. The test assesses orientation, attention, immediate and short-term recall, language, and the ability to follow verbal and written commands. The lower the score, the lower the cognitive mental status.
To screen patients for the gene, genomic DNA was extracted from EDTA-treated whole blood using the Puregene DNA extraction kit (available from Gentra Systems). […] J. Psychiatr. 154:603-608, 1997. Genotypes were determined by two observers blind as to the clinical or neuropathological diagnosis.
All statistical analyses were performed using the SAS software package (available from SAS Institute). […] For remitter and responder analyses of clinical measures of depression, Cochran-Mantel-Haenszel statistics were used. For comparison of medication and genotype groups on baseline demographic measures, two-way analyses of variance were used.

[2] = tested on: patients 65 years of age and older with major depression; test: Discontinuation due to adverse events in 8-week double-blind comparison; type: in vivo, human
Method: (§4) All statistical analyses were performed using the SAS software package (available from SAS Institute). For clinical measures of depression (HDRS-21, HDRS-17, GDS, and CGI), analyses of covariance were performed with baseline values as the covariate, and apoE genotype (ε4 allele carrier vs. non-carder) and medication (mirtazapine, paroxetine) as the predictors. For remitter and responder analyses of clinical measures of depression, Cochran-Mantel-Haenszel statistics were used. For comparison of medication and genotype groups on baseline demographic measures, two-way analyses of variance were used.

[3] = Plasma drug concentrations in 8-week double-blind comparison
Method: as §1, §2, §3

[4] = tested on: patients 65 years of age and older with major depression; test: Hamilton Depression Rating Scale (HDRS-17, HDRS-21) in 8-week double-blind comparison of paroxetine and mirtazapine; type: in vivo, human; conditions: for HDRS-21 scores, ε4 carriers compared with those without an ε4 allele: interaction p=0.033; for HDRS-17 scores, ε4 carriers compared with those without an ε4 allele: interaction p=0.036; for HDRS-21 50% responders: patients carrying an ε4 allele; for rate and onset of antidepressant response, mirtazapine compared with paroxetine: early weeks of treatment, summary of the example
Text: Hamilton Depression Rating Scale (HDRS; 17 and 21 item versions of a structured interview) (Hamilton, M., J. Neurol. Neurosurg. Psychiatr. 23:56-62, 1960; Hamilton, M., Br. J. Soc. Clin. Psychol. 6:278-296,1967). […] In other words, a lower rating in the HDRS scale signifies less depression. In contrast, HDRS remitters, which are those patients showing the least depression, are defined as subjects who have an HDRS-17 score of less than 7 at a post-baseline visit.
(§5) J. Psychiatr. 154:603-608, 1997.
as §4

[5] = tested on: patients 65 years of age and older with major depression; test: Clinical Global Impression Scale (CGI) in 8-week double-blind comparison; type: in vivo, human; conditions: day 14; for CGI scores, ε4 carriers compared with those without an ε4 allele: interaction p=0.029
Text: Clinical Global Impression Scale (CGI) (Guy, W., ECDEU Assessment Manual for Psychopharmacology, DHEW Publication No. (ADM) 76-338, rev. 1976). The CGI scale is a global 7-point rating of the severity of the illness taking into account the preceding week (CGI-Severity) and a global 7-point rating of the clinical status of the subject since baseline (CGI-Change). A responder is defined as being “Much Improved” or “Very Much Improved”—having a CGI score of at least 2 according to CGI-Change. Thus, a higher CGI-Severity score corresponds to more severe depression whereas a higher CGI-Change score corresponds to lessened depression, or an improvement in alleviating the symptoms of depression.
as §5, §4

[6] = tested on: patients 65 years of age and older with major depression; test: Geriatric Depression Scale (GDS) in 8-week double-blind comparison; type: in vivo, human; conditions: for GDS scores, ε4 carriers compared with noncarriers / 50% reduction in GDS score, ε4 carriers compared with those without an ε4 allele / GDS scores, patients with an ε4 allele compared with those without: day 14; for GDS scores, ε4 carriers compared with noncarriers: Caucasian patients; for 50% reduction in GDS score, ε4 carriers compared with those without an ε4 allele / GDS scores, patients with an ε4 allele compared with those without / 50% reduction in GDS score, ε4 carriers compared with noncarriers: full cohort; for number of patients showing a 50% reduction in GDS, ε4 carriers compared with noncarriers / 50% reduction in GDS score, ε4 carriers compared with noncarriers: day 28; for number of patients showing a 50% reduction in GDS, ε4 carriers compared with noncarriers: Caucasian subjects
Method: Geriatric Depression Scale (GDS) (Yesavage, J. A. et al., J. Psychiatr. Res. 17:37-49, 1983), a self-rating scale developed specifically for rating depression in the elderly. In the GDS, a lower rating signifies less depression. GDS 50% responders are defined as subjects with a decrease on a post-baseline assessment of at least 50% as compared to baseline.
as §5, §4

[7] = day 14, Caucasian patients, p=0.006
[8] = day 14, patients with an ε4 allele, full cohort

Row | SMILES | mean MMSE score, ε4 carriers compared with noncarriers [1] | HDRS scores, improvement of ε4 carriers compared with noncarriers ([4]; day 14, Caucasian patients) | HDRS-21 scores, ε4 carriers compared with those without an ε4 allele ([4]; day 14, full cohort) | HDRS-17 scores, ε4 carriers compared with those without an ε4 allele ([4]; day 14, full cohort) | HDRS-21 50% responders ([4]; day 14, full cohort) | HDRS-17 remitters [4, 8] | rate and onset of antidepressant response, mirtazapine compared with paroxetine [4] | CGI scores, ε4 carriers compared with noncarriers ([5]; Caucasian patients) | CGI scores, ε4 carriers compared with those without an ε4 allele ([5]; full cohort) | GDS scores, ε4 carriers compared with noncarriers [6] | 50% reduction in GDS score, ε4 carriers compared with those without an ε4 allele [6] | GDS scores, patients with an ε4 allele compared with those without [6] | number of patients showing a 50% reduction in GDS, ε4 carriers compared with noncarriers [6] | 50% reduction in GDS score, ε4 carriers compared with noncarriers [6] | further results
1 | CN1CCN2c3ncccc3Cc3ccccc3C2C1 (stereo not shown) [mirtazapine, 1,2,3,4,10,14b-hexahydro-2-methylpyrazino [2,1-a]pyrido[2,3-c]benzazepine] | no effect | greater improvement | significantly lower scores | significantly lower scores | 48% | 28% | higher rate of antidepressant response | significantly better | significantly lower scores | significantly lower | significantly more likely | large decrease | significantly more | significantly more | number of patients who discontinued due to adverse events, ε4 carriers compared with noncarriers ([2]; in vivo): no significant differences; plasma drug concentrations, ε4 carriers compared with non-ε4 carriers ([3]; in vivo): no differences; improvement in HDRS-17 scores, mirtazapine-treated compared with paroxetine-treated patients ([4]; day 7, full cohort): significantly greater improvement; mean HDRS-17 scores, mirtazapine compared with paroxetine [4, 7]: significantly lower; mean HDRS-21 scores, mirtazapine compared with paroxetine [4, 7]: significantly lower; percentage of ε4 carriers responding to medication treatment (50% reduction in HDRS-17, HDRS-21, HDRS-17 remission, 50% reduction in GDS), mirtazapine compared with paroxetine ([4]; day 14, Caucasian subjects): greater; improvement in HDRS-17 scores, mirtazapine-treated compared with paroxetine-treated patients ([4]; day 14, full cohort): Significantly greater improvement; improvement in HDRS-21 scores, mirtazapine-treated compared with paroxetine-treated patients ([4]; day 14, full cohort): Significantly greater improvement; HDRS-17 50% responders, ε4 carriers compared with those without an ε4 allele ([4]; day 14, full cohort, p=0.049): significantly more; HDRS-17 remitters ([4]; day 14, patients without an ε4 allele, full cohort): 7.1%; CGI scores, mirtazapine treated compared with paroxetine treated subjects ([5]; Caucasian patients, p=0.037): significantly better; improvement in CGI scores, mirtazapine-treated compared with paroxetine-treated patients ([5]; full cohort): Significantly greater improvement
2 | Fc1ccc([C@@H]2CCNC[C@H]2COc2ccc3c(c2)OCO3)cc1 [paroxetine] | significantly lower | less improvement | higher scores | higher scores | none | none | slower onset of anti-depressant action | no differences | higher scores | no effect | no difference | no significant difference | no significant effect | no effect | MMSE score, subjects with an ε4 allele compared with those without ([1]; Caucasian subjects, trend, p=0.05): lower MMSE score; number of patients who discontinued due to adverse events, ε4 carriers compared with noncarriers ([2]; Caucasian subjects): no significant differences; number of patients who discontinued due to adverse events, ε4 carriers compared with noncarriers ([2]; full cohort): no significant differences; plasma drug concentrations, ε4 carriers compared with non-ε4 carriers ([3]; Caucasian subjects): no differences; plasma drug concentrations, ε4 carriers compared with non-ε4 carriers ([3]; full cohort): no differences; HDRS-17 50% responders (50% decrease in HDRS-17 score over baseline) [4, 8]: none
